In one series the test system is porcine aortic cusps. The experiment in a line: Subdermal calcification study in rats, porcine aortic cusps. The series is classed as in vivo. On the procedure:
In a first method of cross-linking bioprosthetic tissue, four separate cross-linking solutions were prepared:
1) 0.1 molar TGA in 0.05 molar HEPES buffer at pH 7.4,
2) 0.1 molar TGA in 0.05 boric acid-borax buffer at pH 9.0,
3) 0.1 molar Denacol 521™ (Nagase Chemical Co., Japan) in 0.05 molar HEPES buffer at pH 7.4, and
4) 0.05 molar HEPES buffer (pH 7.4) containing 0.6% (v/v) glutaraldehyde.
Twenty fresh porcine aortic cusps were added to separate 100 milliliter aliquots of each of the four solutions (i.e. using a total of eighty cusps). The cusps and solutions were maintained with constant shaking at room temperature for up to ten days without changing the solution. At selected times, a small section was removed from each of the cusps in each of the cross-linking reactions and analyzed by differential scanning calorimetry to determine the thermal shrinkage temperature (Ts). Cross-linking reactions were considered complete when the value of Ts remained substantially constant over time. Cusps treated in this manner were maintained in the cross-linking solution for more than 20 days prior to use in subsequent experiments. […]
Subdermal calcification studies were performed in rats using tissues treated and stored as described above. Following treatment by either of the two methods described above, the tissues were rinsed thoroughly with excess sterile saline solution immediately prior to implantation. Tissues were implanted subdermally (1 tissue sample per rat, 10 rats per treatment method). Twenty-one days following implantation, the tissues were recovered and their calcium content was measured in samples taken from each tissue.

The test system of series [1] is porcine aortic wall segments. The series can be described thus: Subdermal calcification study in rats, porcine aortic wall. It counts as in vivo. The following applies: Group III: TGA second method, then treated with and stored in formalin-containing solution, 21 days, average ± standard error. On the procedure: (§1) In a second method of cross-linking bioprosthetic tissue, separate 100 milliliter aliquots of […] TGA in 0.10 molar HEPES buffer at pH 7.4 were prepared. The following were added to individual aliquots of this solution.
(§2) The tissues and solutions were maintained at room temperature with constant shaking for up to seven days, during which time the pH of each cross-linking reaction was monitored. For selected reactions, the reaction mixture solution was replaced every 24 hours with a freshly-prepared 100 milliliter aliquot of 0.1 molar TGA in 0.10 molar HEPES buffer at pH 7.4. At selected times, a small section was removed from each tissue in each of the stabilization reaction mixtures, and the section was analyzed by differential scanning calorimetry to determine the thermal shrinkage temperature (Ts). After seven days of reaction, one group of each of the tissues was transferred to 100 milliliters of 0.05 molar phosphate buffer containing 4% (v/v) formalin and stored in this solution prior to use in subsequent experiments.
(§3) Subdermal calcification studies were performed in rats using tissues treated and stored as described above. […] Twenty-one days following implantation, the tissues were recovered and their calcium content was measured in samples taken from each tissue.

A further series deals with bovine pericardium. The series can be described thus: Subdermal calcification study in rats, bovine pericardium. The series is classed as in vivo. The following applies: Group III: TGA second method, then treated with and stored in formalin-containing solution, 21 days, average ± standard error. On the procedure:
as §1, §2, §3

For a further series, the system named is A10 cells. The experiment in a line: Relative biocompatibility of treated collagen surfaces, survival of A10 cells. It counts as cell-based. To be noted: A10 cells on denatured bovine type I collagen film treated with 0.2% (v/v) glutaraldehyde (24 hours, room temperature) or 0.1 molar TGA (24 hours, 37° C.), pH 7.4; about 24 hours of culturing. On the procedure: Denatured (100° C., 1 hour) bovine type I collagen was applied as a film to duplicate culture surfaces. One surface was treated by contacting it with a solution comprising 0.2% (v/v) glutaraldehyde at pH 7.4 for 24 hours at room temperature (i.e. about 20° C.). Another surface was treated by contacting it with a solution comprising 0.1 molar TGA at pH 7.4 for 24 hours at 37° C. Both surfaces were rinsed extensively using phosphate-buffered saline (pH 7.4) in order to remove non-reacted compounds. A10 cells (obtained from the American Type Culture Collection; Gaithersburg, Md.) were provided to both surfaces, and survival of the cells was monitored. A high proportion (estimated at 30% or more of cells) which were provided to the glutaraldehyde-treated collagen surface appeared to be dead following about 24 hours of culturing, with significant amounts of cell debris observed.

Series [2] is described as follows: Thermal shrinkage temperature (Ts) by differential scanning calorimetry. The series is classed as physicochemical, porcine. To be noted: cusp tissue, 0.1 molar TGA and 0.1 molar HEPES, solution replenished every 24 hours, seven days. On the procedure:
(§4) Twenty fresh porcine aortic cusps were added to separate 100 milliliter aliquots of each of the four solutions (i.e. using a total of eighty cusps). The cusps and solutions were maintained with constant shaking at room temperature for up to ten days without changing the solution. At selected times, a small section was removed from each of the cusps in each of the cross-linking reactions and analyzed by differential scanning calorimetry to determine the thermal shrinkage temperature (Ts). Cross-linking reactions were considered complete when the value of Ts remained substantially constant over time. Cusps treated in this manner were maintained in the cross-linking solution for more than 20 days prior to use in subsequent experiments.
(§5) The tissues and solutions were maintained at room temperature with constant shaking for up to seven days, during which time the pH of each cross-linking reaction was monitored. For selected reactions, the reaction mixture solution was replaced every 24 hours with a freshly-prepared 100 milliliter aliquot of 0.1 molar TGA in 0.10 molar HEPES buffer at pH 7.4. At selected times, a small section was removed from each tissue in each of the stabilization reaction mixtures, and the section was analyzed by differential scanning calorimetry to determine the thermal shrinkage temperature (Ts). […]

Series [3] can be described thus: pH monitoring of cross-linking reactions. It counts as physicochemical. On the procedure: as §4, §5
Setting [4] is: cusps cross-linked with 0.1 molar TGA in borate buffer pH 9.0, first method, subdermal in rats, 21 days.

“And” between values parts separate entries of the source, which are not always exact repeats. Equal values may be shown once.

Take `C1OC1CN(CC1CO1)CC1CO1` (stereo not drawn) [TGA, triglycidyl amine]: the “calcium content, average value ± standard error” value in the series on porcine aortic cusps (D: cusps cross-linked with 0.1 molar TGA in HEPES buffer pH 7.4, first method, subdermal in rats, 21 days) is on record as 4.13 ± 2.14 micrograms of calcium per milligram of tissue; in the series on porcine aortic cusps (setting [4]), 1.769 micrograms of calcium per milligram of tissue. Moreover, the “calcium content of individual tissue samples” value was 1.59 micrograms of calcium per milligram of tissue and 17.58 micrograms of calcium per milligram of tissue and 1.107 micrograms of calcium per milligram of tissue and 1.021 micrograms of calcium per milligram of tissue and 0.615 micrograms of calcium per milligram of tissue and 1.30 micrograms of calcium per milligram of tissue and 8.75 micrograms of calcium per milligram of tissue and 1.14 micrograms of calcium per milligram of tissue with porcine aortic cusps (D: cusps cross-linked with 0.1 molar TGA in HEPES buffer pH 7.4, first method, subdermal in rats, 21 days, listed as D); 1.318 micrograms of calcium per milligram of tissue and 0.811 micrograms of calcium per milligram of tissue and 1.31 micrograms of calcium per milligram of tissue and 2.13 micrograms of calcium per milligram of tissue and 1.20 micrograms of calcium per milligram of tissue and 3.85 micrograms of calcium per milligram of tissue with porcine aortic cusps (setting [4]). Moreover, the “Calcium (micrograms/milligram of dry tissue)” value with porcine aortic cusps (porcine aortic cusps, Group III: TGA second method, then treated with and stored in formalin-containing solution, subdermal in rats, 21 days, average ± standard error) is reported as 18.07 ± 9.19 micrograms/milligram of dry ti; in series [1], 21.17 ± 1.81 micrograms/milligram of dry ti; in the series with bovine pericardium, 7.43 ± 3.47 micrograms/milligram of dry ti. In addition, the “post-implantation calcification of the tissue, result in words” value with porcine aortic cusps (tissues treated by first and second stabilization methods, compared with glutaraldehyde treatment) is “inhibits post-implantation calcification of the tissue relative to glutaraldehyde treatment”. Further, the “proportion of cells which appeared to be dead” value in the series with A10 cells is “substantially undetectable proportion”. Also, the “thermal shrinkage temperature (Ts)” value in series [2] was “about 83 °C”. Further, the “pH of the stabilization reaction mixture” value in series [3] (first stabilization method, solution not changed, seven-day reaction period) is listed as about 11.5; in series [3] (second method, reaction mixture solution replaced every 24 hours), at most 8.

Take `O=CCCCC=O` [glutaraldehyde, reference compound]: the “calcium content, average value ± standard error” value with porcine aortic cusps (cusps cross-linked with 0.6% (v/v) glutaraldehyde in 0.05 molar HEPES pH 7.4, first method, subdermal in rats, 21 days) is on record as 106.69 ± 9.81 micrograms of calcium per milligram of tissue. Further, the “calcium content of individual tissue samples” value in the series with porcine aortic cusps (cusps cross-linked with 0.6% (v/v) glutaraldehyde in 0.05 molar HEPES pH 7.4, first method, subdermal in rats, 21 days, listed as A) is 63.28 micrograms of calcium per milligram of tissue and 72.44 micrograms of calcium per milligram of tissue and 117.67 micrograms of calcium per milligram of tissue and 131.43 micrograms of calcium per milligram of tissue and 158.70 micrograms of calcium per milligram of tissue and 140.34 micrograms of calcium per milligram of tissue and 141.91 micrograms of calcium per milligram of tissue and 94.44 micrograms of calcium per milligram of tissue and 89.60 micrograms of calcium per milligram of tissue and 87.42 micrograms of calcium per milligram of tissue. In the series with A10 cells, the “proportion of cells which appeared to be dead” value is given as at least 30%.

(Values after patent US6391538B1, “Stabilization of implantable bioprosthetic tissue” (The Children's Hospital of Philadelphia, priority 2000, dated 2002).)
